Reference: article PMC4198181, “Gold(I) Complexes of 9-Deazahypoxanthine as Selective Antitumor and Anti-Inflammatory Agents” (PLoS ONE, 2014)

Tested on: human cancer cell lines (MCF7, HOS, A549, G361, HeLa, A2780, A2780R, 22Rv1)
Assay: MTT in vitro cytotoxicity, summary over the panel of human cancer cell lines
Format: cell-based
Settings: on the MCF7 and HOS cell lines
Procedure: In vitro cytotoxic activity was determined by the MTT assay in human breast adenocarcinoma (MCF7; ECACC no. 86012803), human osteosarcoma (HOS; ECACC no. 87070202), lung carcinoma (A549; ECACC no. 86012804), malignant melanoma (G361; ECACC no. 88030401), cervix epitheloid carcinoma (HeLa; ECACC no. 93021013), ovarian carcinoma (A2780; ECACC no. 93112519), cisplatin-resistant ovarian carcinoma (A2780R; ECACC no. 93112517) and prostate carcinoma (22Rv1; ECACC no 105092802) cancer cell lines, purchased from European Collection of Cell Cultures (ECACC). The cells were cultured according to the ECACC instructions and they were maintained at 37°C and 5% CO2 in a humidified incubator. The primary culture of human hepatocytes (HEP220, batch number HEP220819) was obtained from Biopredic International (France). The culture medium was Williams and HAM's F-12 (1∶1) supplemented with penicillin, streptomycin, ascorbic acid, linoleic acid, holo-transferin, ethanolamine, glucagon, insulin, dexamethasone, pyruvate, glucose, glutamine, amphotericin. The medium was enriched for plating with 2% foetal calf serum (v/v). The medium was exchanged for a serum-free medium the day after and the culture was stabilized for additional 24 h. Thereafter, the cells were ready for treatments. The cultures were maintained at 37°C and 5% CO2 in a humidified incubator. The cells were treated with complexes 1–5 (at the concentration levels of 0.01, 0.1, 1.0, 5.0, 25.0, and 50.0 µM), starting compounds e.g. HL1–5, AuCl, and cisplatin (applied up to 50 µM) for 24 h, using multi-well culture plates of 96 wells. […]
The cytotoxicity data were expressed as the percentage of viability, where 100% represented the treatments with vehicle (0.1% DMF or 0.1% DMSO). […] The IC50 values were calculated from viability curves. […] The significance of the differences between the results was assessed by the ANOVA analysis with p<0.05 considered to be significant (QC Expert 3.2, Statistical software, TriloByte Ltd., Pardubice, Czech Republic).

**Q.** How did the “times more efficient than cisplatin” value turn out when CC(C)Oc1ncnc2cc[n]([Au])c12.c1ccc(P(c2ccccc2)c2ccccc2)cc1 [complex 2, [Au(L2)(PPh3)]] was run?
**A.** at least 20 times
